{"source": "patent EP0853484B1", "about": "“NOVEL MU OPIOID RECEPTOR LIGANDS: AGONISTS AND ANTAGONISTS” (priority 1995, dated 1996)", "key": {"[1]": {"target": "T1, κ receptors (Cavia porcellus, UniProt P41144)", "T1 construct": "tissue homogenates prepared from guinea pig brains (cortex and cerebellum); tissue Harlan Bioproducts for Science; host or cells: guinea pig brain (cortex and cerebellum) homogenate", "T1 sequence (P41144 whole entry)": "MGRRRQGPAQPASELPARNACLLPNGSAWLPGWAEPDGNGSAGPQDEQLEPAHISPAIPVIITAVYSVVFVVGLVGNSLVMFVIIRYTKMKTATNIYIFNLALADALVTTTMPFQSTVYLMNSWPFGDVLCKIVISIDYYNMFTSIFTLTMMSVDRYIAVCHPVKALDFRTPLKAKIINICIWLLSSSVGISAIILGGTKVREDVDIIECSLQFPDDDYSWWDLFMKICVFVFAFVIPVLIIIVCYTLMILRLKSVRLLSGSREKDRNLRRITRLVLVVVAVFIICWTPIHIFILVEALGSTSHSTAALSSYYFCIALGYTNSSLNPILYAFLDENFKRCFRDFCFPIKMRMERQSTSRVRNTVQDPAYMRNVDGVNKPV", "experiment": "Radioreceptor assay selective for κ receptors ([3H]-U69,593, guinea pig brain homogenates)", "format": "binding", "details": "ratio of κ IC50 to µ IC50", "experimental": "Assays selective for κ receptors were carried out using [^3H]-U69,593 (3 nM, specific activity 62 Ci/mmol) as the radioligand and tissue homogenates prepared from guinea pig brains (cortex and cerebellum) using Tris buffer containing 100 µM PMSF, 5 mM MgCl2 and 1 mg/ml BSA, pH 7.4. Sample tubes were incubated for 2.5 hr."}, "[2]": {"target": "T2, δ receptors (Rattus norvegicus, UniProt P33533)", "T2 construct": "performed using rat brain homogenates as above; tissue Harlan Bioproducts for Science; host or cells: rat brain crude membrane homogenate", "T2 sequence (P33533 whole entry)": "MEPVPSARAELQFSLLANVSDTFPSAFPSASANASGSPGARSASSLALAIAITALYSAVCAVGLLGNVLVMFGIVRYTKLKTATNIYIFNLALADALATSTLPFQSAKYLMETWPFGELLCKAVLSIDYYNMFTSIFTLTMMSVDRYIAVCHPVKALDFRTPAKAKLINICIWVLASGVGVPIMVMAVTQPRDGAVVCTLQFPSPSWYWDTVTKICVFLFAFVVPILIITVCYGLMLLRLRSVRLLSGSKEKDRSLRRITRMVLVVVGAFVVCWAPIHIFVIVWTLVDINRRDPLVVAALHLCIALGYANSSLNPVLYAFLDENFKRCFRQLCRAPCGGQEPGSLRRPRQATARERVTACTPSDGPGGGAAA", "experiment": "Radioreceptor assay selective for δ receptors ([3H]-naltrindole, rat brain homogenates)", "format": "binding", "details": "ratio of δ IC50 to µ IC50", "experimental": "Radioreceptor assays selective for δ receptors were performed using rat brain homogenates as above and [^3H]-naltrindole (0.5 nM, specific activity 34.7 Ci/mmol) as radioligand in Tris buffer containing 100 µM phenylmethylsulfonyl fluoride (PMSF), 5 mM MgCl2 and 1 mg/ml bovine serum albumin (BSA), pH 7.4. Samples were incubated for 2.5 hr. Standard curves were prepared using 0.10-3200 nM [^3H]-D-Pen2, Pen5]-enkephalin ([^3H]-DPDPE)."}, "[3]": {"system": "MU RECEPTOR", "experiment": "Agonist or antagonist activity by either the adenylyl cyclase assay or the GPI assay (not stated which)"}}, "note": "Non-standard residues stand in square brackets, D forms with d. No end group written: not given here."}
{"substance": "[D-Ala^2,MePhe^4,Gly-ol^5]enkephalin [DAMGO]", "values": [{"measurement": "κ/µ", "setting": "[1]", "result": 844}, {"measurement": "δ/µ", "setting": "[2]", "result": 253}]}
{"substance": "[dI][dM][dT][dW]G[dP]-NH2 [SEQ ID NO. 130]", "values": [{"measurement": "AGONIST OR ANTAGONIST", "setting": "[3]", "result": "Agonist"}]}
